T/C data for 23 molecules are collected here from PubChem BioAssay AID316 (DTP/NCI, 2004).

The test deals with P1534 leukemia ip, CD2F1 mice, survival T/C. The test is described as follows: NCI In Vivo Anticancer Drug Screen. Data for tumor model P1534 Leukemia (intraperitoneal) in CD2F1 (CDF1) mice. The settings on record: higher = longer survival. Here is the method: The antitumor activity of compounds was measured in mice bearing transplantable tumors. Survival or tumor size were measured and the results are expressed as the measurement made in the treated group (T) divided by the measurement made in the vehicle treated control group (C). The tumor model used in this assay is P1534 Leukemia (intraperitoneal) in CD2F1 (CDF1) mice

Setting [1] is: endpoint: mean survival time, dose: 6.25 mg/kg/injection, schedule: Q01DX010 (ip), vehicle: saline.
[2] abbreviates: endpoint: mean survival time, dose: 12.5 mg/kg/injection, schedule: Q01DX010 (ip), vehicle: saline.
The mark [3] stands for this setting: endpoint: mean survival time, dose: 25.0 mg/kg/injection, schedule: Q01DX010 (ip), vehicle: saline.
Where [4] appears, read: endpoint: mean survival time, dose: 50.0 mg/kg/injection, schedule: Q01DX010 (ip), vehicle: saline.
The mark [5] stands for this setting: endpoint: mean survival time, dose: 1.25 mg/kg/injection, schedule: Q01DX010 (ip), vehicle: saline.
Setting [6] is: endpoint: mean survival time, dose: 2.5 mg/kg/injection, schedule: Q01DX010 (ip), vehicle: saline.
Setting [7] is: endpoint: mean survival time, dose: 5.0 mg/kg/injection, schedule: Q01DX010 (ip), vehicle: saline.
Setting [8] is: endpoint: mean survival time, dose: 10.0 mg/kg/injection, schedule: Q01DX010 (ip), vehicle: saline.
Setting [9] is: endpoint: mean survival time, dose: 100.0 mg/kg/injection, schedule: Q01DX010 (ip), vehicle: saline.
[10] abbreviates: endpoint: mean survival time, dose: 200.0 mg/kg/injection, schedule: Q01DX010 (ip), vehicle: saline.
Where [11] appears, read: endpoint: mean survival time, dose: 400.0 mg/kg/injection, schedule: Q01DX010 (ip), vehicle: saline.

Several values for one entry are separate records, joined by “and”; a condition that tells them apart may be missing. Equal entries are not always repeated. Toxic doses and inconclusive results are not listed.

On to `O=C(NCCCCC(NC(=O)c1ccccc1)C(=O)NCCCCCCCCCCNC(=O)C(CCCCNC(=O)c1ccccc1)NC(=O)c1ccccc1)c1ccccc1` (configuration not stated), for which the T/C runs as follows: under setting [1], 103 % of control; under setting [2], 103 % of control; under setting [3], 100 % of control; under setting [4], 96 % of control.
As for `CCN(CC)C(=S)S`, the T/C is, setting by setting: (endpoint: mean survival time, dose: 125.0 mg/kg/injection, schedule: Q01DX010 (ip), vehicle: saline) 100 % of control; (endpoint: mean survival time, dose: 250.0 mg/kg/injection, schedule: Q01DX010 (ip), vehicle: saline) 100 % of control; (endpoint: mean survival time, dose: 500.0 mg/kg/injection, schedule: Q01DX010 (ip), vehicle: saline) 103 % of control; (endpoint: mean survival time, dose: 1000.0 mg/kg/injection, schedule: Q01DX010 (ip), vehicle: saline) 107 % of control.
Take `C=C(C(=O)OC1CC2CCC(C1)N2C)c1ccccc1` (configuration not stated): the T/C reads like this: under setting [5], 92 % of control; under setting [6], 92 % of control; under setting [7], 100 % of control; under setting [8], 107 % of control.
On to `O=C1C(=O)N(CN(CCO)CCO)c2ccccc21`, for which the T/C by setting is: under setting [4], 96 % of control; under setting [9], 100 % of control; under setting [10], 100 % of control; under setting [11], 100 % of control.
With `NCCCC(N)C(=O)NCCCCCCNCCCCCCNC(=O)C(N)CCCN` (configuration not stated), the T/C under setting [2] was 100 % of control, the T/C under setting [3] was 92 % of control, the T/C under setting [4] was 100 % of control and the T/C under setting [9] was 96 % of control.
As to `COc1ccc2c(c1O)-c1c(OC)c(OC)cc3c1[C@H](C2)[N+](C)(C)CC3`, the T/C is 96 % of control under setting [5], 103 % of control under setting [6], 103 % of control under setting [7] and 100 % of control under setting [8].
As for `OCC1OC(n2cnc3c(=S)nc[nH]c32)C(O)C1O` (configuration not stated), the T/C was 111 % of control (endpoint: mean survival time, dose: 20.0 mg/kg/injection, schedule: Q01DX010 (ip), vehicle: saline); 111 % of control and 122 % of control (endpoint: mean survival time, dose: 40.0 mg/kg/injection, schedule: Q01DX010 (ip), vehicle: saline).
For `N=C(N)SCc1c2ccccc2c(CSC(=N)N)c2ccccc12`, the T/C was 117 % of control (endpoint: mean survival time, dose: 0.31 mg/kg/injection, schedule: Q01DX010 (ip), vehicle: saline) and 121 % of control (endpoint: mean survival time, dose: 0.63 mg/kg/injection, schedule: Q01DX010 (ip), vehicle: saline).
For `OC(CBr)C(O)C(O)C(O)CBr` (configuration not stated), the T/C was 103 % of control under setting [2], 103 % of control under setting [3], 103 % of control under setting [4] and 103 % of control under setting [9].
As to `NCC(=O)NCCCCCCNCCCCCCNC(=O)CN`, the T/C under setting [4] is 100 % of control, the T/C under setting [9] was 100 % of control, the T/C under setting [10] was 100 % of control and the T/C under setting [11] was 100 % of control.
With `CS(=O)(=O)OCCCCOS(C)(=O)=O`, the T/C under setting [1] was 106 % of control and 88 % of control; the T/C under setting [2] is 88 % of control and 100 % of control; the T/C under setting [3] is 112 % of control and 88 % of control; the T/C under setting [4] is 112 % of control and 100 % of control.
As for `C[C@@H]1CCC([C@@H](C)[C@H]2CC[C@H]3[C@@H]4CC[C@H]5C[C@@H](O)CC[C@]5(C)[C@H]4CC[C@]23C)=NC1`, the T/C runs as follows: under setting [2], 107 % of control; under setting [3], 103 % of control; under setting [4], 100 % of control; under setting [9], 100 % of control.
As for `CC1CCCCN1` (configuration not stated), the T/C reads like this: under setting [1], 103 % of control; under setting [2], 103 % of control; under setting [3], 103 % of control; under setting [4], 96 % of control.
Take `C[C@]12C[C@H](O)[C@H]3[C@@H](CCC4=CC(=O)CC[C@@]43C)[C@@H]1CC[C@@H]2C(=O)CO`: the T/C was 107 % of control (endpoint: mean survival time, dose: 12.5 mg/kg/injection, schedule: Q01DX010 (sc), vehicle: steriod suspending solution); 107 % of control (endpoint: mean survival time, dose: 25.0 mg/kg/injection, schedule: Q01DX010 (sc), vehicle: steriod suspending solution); 107 % of control (endpoint: mean survival time, dose: 50.0 mg/kg/injection, schedule: Q01DX010 (sc), vehicle: steriod suspending solution); 107 % of control (endpoint: mean survival time, dose: 100.0 mg/kg/injection, schedule: Q01DX010 (sc), vehicle: steriod suspending solution).
On to `NCCc1ccccc1`, for which the T/C reads like this: (endpoint: mean survival time, dose: 15.6 mg/kg/injection, schedule: Q01DX010 (ip), vehicle: saline) 96 % of control; (endpoint: mean survival time, dose: 31.3 mg/kg/injection, schedule: Q01DX010 (ip), vehicle: saline) 92 % of control; (endpoint: mean survival time, dose: 62.5 mg/kg/injection, schedule: Q01DX010 (ip), vehicle: saline) 100 % of control.
With `CCc1c(CC(=O)O)c2cc(C)ccc2n1Cc1ccc(Cl)cc1`, the T/C under setting [4] is 107 % of control.
For `O=CC(NC(=O)N(CCCl)N=O)C(O)C(O)C(O)CO` (configuration not stated), the T/C runs as follows: (endpoint: median survival time, dose: 0.62 mg/kg/injection, schedule: Q01DX005 (ip), vehicle: other) 110 % of control; (endpoint: median survival time, dose: 2.5 mg/kg/injection, schedule: Q01DX005 (ip), vehicle: other) 156 % of control; (endpoint: median survival time, dose: 5.0 mg/kg/injection, schedule: Q01DX005 (ip), vehicle: other) 224 % of control; (endpoint: median survival time, dose: 10.0 mg/kg/injection, schedule: Q01DX005 (ip), vehicle: other) 89 % of control.
On to `Nc1ncnc2[nH]ncc12`, for which the T/C is 100 % of control (endpoint: mean survival time, dose: 1.5 mg/kg/injection, schedule: Q01DX010 (ip), vehicle: saline); 110 % of control and 100 % of control (endpoint: mean survival time, dose: 3.0 mg/kg/injection, schedule: Q01DX010 (ip), vehicle: saline); 120 % of control and 100 % of control (endpoint: mean survival time, dose: 6.0 mg/kg/injection, schedule: Q01DX010 (ip), vehicle: saline); 115 % of control and 95 % of control (endpoint: mean survival time, dose: 12.0 mg/kg/injection, schedule: Q01DX010 (ip), vehicle: saline).
As for `O=c1cccc2n1CC1CNC[C@H]2C1`, the T/C by setting is: (endpoint: mean survival time, dose: 0.78 mg/kg/injection, schedule: Q01DX010 (ip), vehicle: saline) 100 % of control; (endpoint: mean survival time, dose: 1.56 mg/kg/injection, schedule: Q01DX010 (ip), vehicle: saline) 100 % of control; (endpoint: mean survival time, dose: 3.13 mg/kg/injection, schedule: Q01DX010 (ip), vehicle: saline) 103 % of control; under setting [1], 100 % of control.
For the molecule `c1ccc2ncccc2c1`, the T/C is 100 % of control under setting [3], 100 % of control under setting [4] and 96 % of control under setting [9].
On to `C[C@]12CCC(=O)C=C1CC[C@@H]1[C@@H]2[C@@H](O)C[C@@]2(C)[C@H]1CC[C@]2(O)C(=O)CO`, for which the T/C is 110 % of control (2×) and 118 % of control (endpoint: mean survival time, dose: 10.0 mg/kg/injection, schedule: Q01DX005 (sc), vehicle: steriod suspending solution); 104 % of control (2×) and 110 % of control (endpoint: mean survival time, dose: 50.0 mg/kg/injection, schedule: Q01DX005 (sc), vehicle: steriod suspending solution); 90 % of control and 95 % of control (endpoint: mean survival time, dose: 100.0 mg/kg/injection, schedule: Q01DX005 (sc), vehicle: steriod suspending solution); 87 % of control and 89 % of control (endpoint: mean survival time, dose: 200.0 mg/kg/injection, schedule: Q01DX005 (sc), vehicle: steriod suspending solution); 93 % of control (endpoint: mean survival time, dose: 250.0 mg/kg/injection, schedule: Q01DX005 (sc), vehicle: steriod suspending solution).
On to `CCC12CCCN3CCc4c(n(c5ccccc45)C(O)(C(=O)OC)C1)C32` (configuration not stated), for which the T/C (endpoint: mean survival time, dose: 1.88 mg/kg/injection, schedule: Q01DX010 (ip), vehicle: saline) is 90 % of control; the T/C (endpoint: mean survival time, dose: 3.75 mg/kg/injection, schedule: Q01DX010 (ip), vehicle: saline) was 93 % of control; the T/C (endpoint: mean survival time, dose: 7.5 mg/kg/injection, schedule: Q01DX010 (ip), vehicle: saline) is 96 % of control.
As for `Cn1c(=O)c2c(ncn2C)n(C)c1=O`, the T/C runs as follows: under setting [3], 100 % of control; under setting [4], 100 % of control; under setting [9], 100 % of control.
